Results published in US10500198B2, “Bis-benzylidine piperidone proteasome inhibitor with anticancer activity” (The Johns Hopkins University, priority 2013, dated 2019).
“Also recorded” adds a separate entry of the source.

How the values were obtained:
[1] = tested on: NCI-H929 cells; assay: Active caspase-3 by FACS; type: cell-based, human; details: 0.5 μM, 8 h
Experimental: NCI-H929 cells were treated with RA195 (0.5 μM) and Bz(0.5 μM) for the period of 8 h. Cells were stained for PE-conjugated Caspase-3 antibody and measured active caspase-3 by FACS.

[2] = target: purified 20S proteasomes (Homo sapiens, UniProt P28072+P28074+Q99436); assay: 20S proteolytic activity assay; type: biochemical; details: 1 μM; for chymotryptic activity of the 20S proteasome (Suc-LLVY-AMC): 30 min
Experimental: Actin was used as a loading control. […] In FIG. 9C-E, purified 20S proteasomes were treated for 30 min with or without compounds (1 μM) prior to the addition of the specific fluorogenic substrate for chymotryptic (9C), tryptic (9D) or PGPH (9E) hydrolytic proteasome capacities. […] DMSO was added to all samples to a final concentration of 0.1% (upper panel). The effect of DMSO is highlighted by including ubiquitin—AMC (0.5 μM) hydrolysis with 2 nM UCH37 lacking DMSO (orange, bottom panel). In FIG. 9H, purified 19S RP (500 nM) in buffer was treated with corresponding compounds 30 min at 37° C. and AMC cleavage was measured with a fluorometer for 20 min. Ubal was used as a positive control.
Release of free AMC by the enzyme reaction was determined by measuring its fluorescence at 380 nm (excitation) and 440 nm (emission). The graphs shown are representative of at least three independent determinations and each data point is the mean of ±SD of triplicate determinations.
20S proteasome cleaves the chymotryptic substrate and releases fluorescent AMC.

[3] = target: T1, RPN13 (Homo sapiens, UniProt Q16186); assay: Biotin labeling assay; type: binding; details: cell lysate or purified RP, streptavidin-peroxidase blot
T1 construct: endogenous in cells; host or cells: HeLa, HS578T cell lysate
T1 sequence (Q16186 whole entry): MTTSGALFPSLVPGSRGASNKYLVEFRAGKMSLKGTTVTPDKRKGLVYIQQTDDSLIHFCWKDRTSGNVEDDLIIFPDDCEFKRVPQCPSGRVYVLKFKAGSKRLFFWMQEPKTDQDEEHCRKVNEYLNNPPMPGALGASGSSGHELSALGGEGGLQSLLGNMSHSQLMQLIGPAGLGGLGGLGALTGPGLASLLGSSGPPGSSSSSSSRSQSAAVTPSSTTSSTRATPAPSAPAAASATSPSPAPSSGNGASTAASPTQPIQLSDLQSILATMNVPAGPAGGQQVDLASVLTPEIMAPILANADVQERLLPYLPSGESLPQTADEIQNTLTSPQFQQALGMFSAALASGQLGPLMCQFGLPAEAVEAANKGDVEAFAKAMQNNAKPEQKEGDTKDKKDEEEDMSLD
Experimental: FIGS. 10 A-10E show a series of graphs and immunoblots showing the effects of several compounds on cell viability and proteasome activity. […] 10B and 10C show immunoblots of the proteasome activity of cell lines treated with the indicated compounds. […] IC50 values were determined in triplicate. In FIG. 10B, HeLa cells were treated for 12 hr and the cell lysate was subjected to immunoblot analysis with anti-Ubiquitin antibody. In FIG. 10C, SiHa cells were treated with the indicated compounds for 12 hr and the lysate subjected to Western blot analysis with anti-Ubiquitin antibody. HeLa cell lysate was treated with RA190B, subjected to SDS-PAGE, and probed with streptavidin-peroxidase following protein transfer to a polyvinylidene difluoride (PVDF) membrane. The streptavidin-peroxidase bound to biotinylated cellular proteins, but a striking new band at 42 kDa appeared in RA190B-treated samples (FIG. 2A). […] IC50 values were determined in triplicate.
To eliminate the possibility that another RP component was required for RA190B interaction, RPN13 or an irrelevant protein (L2) was overexpressed in bacteria. Cell lysate harvested from bacteria either with or without […] induction of ectopic protein expression was labeled with RA190B and probed by blotting with streptavidin-peroxidase. RA190B reacted strongly with a 42 kDa protein only in lysates of bacteria expressing RPN13 (FIG. 2D). […] 800 μL fractions were collected and alternate fractions (1,3,5,7,9,11,13,15,17) were analyzed for the presence of proteasomal proteins (RPN13, RPN2, RPN1 and UCH37) by Western blot analysis.
Human cells (5×10^6 HeLa or 293TT cells) were lysed using MPER (Pierce) lysis buffer (500 μL). RPN13 or HPV L2 transformed bacterial cells (500 μL of culture) were centrifuged to harvest the cells which were re-suspended in 500 μL BPER (Pierce). Cell lysates were centrifuged at 10,000 rpm briefly (2 min) at 4° C. to remove cell debris. Lysate supernatant (200 μL) was pre cleared with streptavidin dyna beads (20 μL) for 1 h at 4° C. to remove non-specific biotin binding and incubated with compounds (indicated concentrations or 20 μM) at 4° C. for 1 hr. An equal amount of each sample (20 μL of lysate) was mixed with an equal volume of Laemmli sample buffer (20 μL) (BioRad) and was boiled for 5 min. […] (24 V). Membrane was blocked with 5% BSA in PBST for 1 hr at room temperature and washed for 20 min (3×PBST). Then the membrane was probed with HRP-streptavidin (1:10,000 in PBST) for 1 hr at room temperature and washed for 30 min (3×PBST) and developed using HyGLO chemiluminescent detection reagent (Denville) for biotin recognition. For the purified enzyme assay, 19S purified proteasome (R&D Systems, Cat. No. E-366) (500 ng) in 19S buffer (20 mM HEPES, 20 mM NaCl, 1 mM DTT, 15% Glycerol) was incubated with compounds (20 μM) for 1 hr at room temperature and mixed with an equal volume of Laemmli sample buffer (20 μL) (BioRad) and was boiled for 5 min. Each sample was loaded onto gel and followed the western blot protocol mentioned above.
Purified 19S proteasome (500 ng) was incubated with corresponding compounds for 30 min and subjected to immunoblot and probed with HRP-conjugated streptavidin. In FIG. 23, the single band at 42 KDa indicates Rpn13 binding to 195. RA183B (20 μM) is used as positive control for Rpn13 binding. Competition experiments were done with RA183 (100 μM) and RA195 (100 μM) along with RA195B (20 μM).

[4] = tested on: RPMI8226; assay: Cell viability after 48-hr treatment (Table 1); type: cell-based; details: XTT assay
Experimental: (§1) Cells seeded at the concentration of 1,000 cells/well for HeLa, 5,000 cells/well for ES2 and HCT116 and 10,000-20,000 cells/well for other cell lines in 100 μL medium in 96-well plate were treated with RA series compounds at specified concentrations. […]

[5] = tested on: HT3; assay: Cell viability after 48-hr treatment (Table 1); type: cell-based; details: 48-hr treatment; XTT assay; read-out: IC50, HT3
Experimental: as §1

[6] = tested on: HaCaT; assay: Cell viability after 48-hr treatment (Table 1); type: cell-based; details: 48-hr treatment; XTT assay; read-out: IC50, HaCaT
Experimental: as §1

[7] = tested on: SiHa; assay: Cell viability after 48-hr treatment (Table 1); type: cell-based; details: 48-hr treatment; XTT assay; read-out: IC50, SiHa
Experimental: as §1

| Compound | active caspase-3 [1] | chymotryptic activity of the 20S proteasome (Suc-LLVY-AMC) [2] | labeling of / competition for RPN13 (42 kDa band) [3] | CP chymotryptic, tryptic, and PGPH activities ([2]; 30 min pre-treatment) | IC50 [4] [nM] | IC50 [5] [nM] | IC50 [6] [nM] | IC50 [7] [nM] |
| --- | --- | --- | --- | --- | --- | --- | --- | --- |
| Cl.NCCCC[C@H](NC(=O)OCC1c2ccccc2-c2ccccc21)C(=O)N1C/C(=C\c2ccc(Cl)c(Cl)c2)C(=O)/C(=C/c2ccc(Cl)c(Cl)c2)C1 [RA195] | caused an increase in caspase-3 expression | do not | binds covalently to RPN13 | – | – | – | – | – |
| Cl.N[C@@H](Cc1ccccc1)C(=O)N1CC(=Cc2ccc(Cl)c(Cl)c2)C(=O)C(=Cc2ccc(Cl)c(Cl)c2)C1 [RA190, 3,5-bis(3,4-dichlorobenzylidene)-1-(S-2-amino-3-phenyl)-piperidin-4-one-HCl salt] | – | do not | competitive; also recorded: covalently binds directly to RPN13 | does not inhibit | 100 | > 5000 | > 2500 | 750 |
